Measured values: US12390437B2, “Itaconic acid derivatives and uses thereof intreating an inflammatory disease or a disease associated with an undesirable immune response” (Sitryx Therapeutics Limited, priority 2019, dated 2025)
Where two headings read alike, the source gives them in different places.

Legend:
[1] = Mouse pharmacokinetic study, intravenous dosing; type: in vivo; details: male, C57BL/6, mouse, iv, plasma, 10 mg/kg i.v., read-out: Parent compound concentration following intravenous administration
Summary of the method: (§1)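 Plasma drug levels were quantified by LC-MS/MS from K2EDTA facial-vein semi-serial bleeds (N=3 per time point) in male C57BL/6 mice aged 6-8 weeks. Gavage dosing used 100 mg/kg (5% DMSO/HPMC-Tween vehicle, 5 min–24 h); tail-vein dosing used 10 mg/kg (10% DMSO/HP-β-CD vehicle, 3 min–8 h).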

[2] = Mouse pharmacokinetic study, oral administration; type: in vivo; details: for concentration at 0.083 h / concentration at 0.25 h / concentration at 0.5 h / concentration at 1 h / concentration at 2 h / concentration at 4 h / concentration at 6 h / concentration at 8 h / concentration at 24 h: male
Summary of the method: as §1

[3] = Hepatocyte stability assay (human); type: in vitro ADME; details: cryopreserved hepatocytes, 10 μM compound, 0.5×10^6 cells/mL, 60 minutes, read-out: T½
Source text: (§2) Defrosted cryo-preserved hepatocytes (viability >70%) are used to determine the metabolic stability of a compound via calculation of intrinsic clearance (Clint; a measure of the removal of a compound from the liver in the absence of blood flow and cell binding). Clearance data are particularly important for in vitro work as they can be used in combination with in vivo data to predict the half-life and oral bioavailability of a drug.
(§3) The metabolic stability in hepatocytes assay involves a time-dependent reaction using both positive and negative controls. The cells must be pre-incubated at 37° C. then spiked with test compound (and positive control); samples taken at pre-determined time intervals are analysed to monitor the change in concentration of the initial drug compound over 60 minutes. A buffer incubation reaction (with no hepatocytes present) acts as a negative control and two cocktail solutions, containing compounds with known high and low clearance values (verapamil/7-hydroxycoumarin and propranolol/diltiazem), act as positive controls. • 1. The assay is run with a cell concentration of 0.5×10^6 cells/mL in Leibovitz buffer. • 2. All compounds and controls are run in duplicate. • 3. Compound concentration is 10 μM. • 4. All compounds and controls are incubated with both cells and buffer to show turnover is due to hepatic metabolism. • 5. All wells on the incubation plate will have 326.7 μL of either cells or buffer added. • 6. Prior to assay, cell and buffer-only incubation plates are preincubated for 10 mins at 37° C. • 7. The assay is initiated by adding compounds, 3.3 μL of 1 mM in 10% DMSO-90% Buffer; final DMSO concentration is 0.1%. • 8. Samples are taken at regular timepoints (0, 5, 10, 20, 40, 60 min) until 60 mins. • 9. Sample volume is 40 μL and it is added to 160 μL of crash solvent (acetonitrile with internal standard) and stored on ice. • 10. At the end of the assay, the crash plates are centrifuged at 3500 rpm for 20 mins at 4° C. • 11. 80 μL of clear supernatant is removed and mixed with 80 μL of deionised water before being analysed by LC-MS/MS.
(§4) Raw LC-MS/MS data are exported to, and analysed in, Microsoft Excel for determination of intrinsic clearance. The percentage remaining of a compound is monitored using the peak area of the initial concentration as 100%. Intrinsic clearance and half-life values are calculated using a graph of the natural log of percentage remaining versus the time of reaction in minutes. Half-life (min) and intrinsic clearance (Clint in μL min^−1 10^−6 cells) values are calculated using the gradient of the graph (the elimination rate constant, k) and Equations 1 and 2.

hepatocytes = assay: Hepatocyte stability assay (human); type: in vitro ADME; details: 10 μM compound, 0.5×10^6 cells/mL, 60 minutes
Source text: as §2, §3, §4

[4] = C57BL/6, mouse, plasma, po, 100 mg/kg, plasma, male C57BL/6 mice, oral gavage 100 mg/kg, 0.083 h, read-out: Parent compound concentrations following oral administration, Time 0.083 h
[5] = C57BL/6, mouse, plasma, po, 100 mg/kg, plasma, male C57BL/6 mice, oral gavage 100 mg/kg, 0.25 h, read-out: Parent compound concentrations following oral administration, Time 0.25 h
[6] = C57BL/6, mouse, plasma, po, 100 mg/kg, plasma, male C57BL/6 mice, oral gavage 100 mg/kg, 0.5 h, read-out: Parent compound concentrations following oral administration, Time 0.5 h
[7] = C57BL/6, mouse, plasma, po, 100 mg/kg, plasma, male C57BL/6 mice, oral gavage 100 mg/kg, 1 h, read-out: Parent compound concentrations following oral administration, Time 1 h
[8] = C57BL/6, mouse, plasma, po, 100 mg/kg, plasma, male C57BL/6 mice, oral gavage 100 mg/kg, 2 h, read-out: Parent compound concentrations following oral administration, Time 2 h
[9] = C57BL/6, mouse, plasma, po, 100 mg/kg, plasma, male C57BL/6 mice, oral gavage 100 mg/kg, 4 h, read-out: Parent compound concentrations following oral administration, Time 4 h
[10] = C57BL/6, mouse, plasma, po, 100 mg/kg, plasma, male C57BL/6 mice, oral gavage 100 mg/kg, 6 h, read-out: Parent compound concentrations following oral administration, Time 6 h
[11] = C57BL/6, mouse, plasma, po, 100 mg/kg, plasma, male C57BL/6 mice, oral gavage 100 mg/kg, 8 h, read-out: Parent compound concentrations following oral administration, Time 8 h
[12] = C57BL/6, mouse, plasma, po, 100 mg/kg, plasma, male C57BL/6 mice, oral gavage 100 mg/kg, 24 h, read-out: Parent compound concentrations following oral administration, Time 24 h

Row | Structure (SMILES) | concentration at 0.05 h [1] [ng/mL] | concentration at 0.133 h [1] [ng/mL] | concentration at 0.25 h [1] [ng/mL] | concentration at 0.5 h [1] [ng/mL] | concentration at 1 h [1] [ng/mL] | concentration at 2 h [1] [ng/mL] | concentration at 4 h [1] [ng/mL] | concentration at 6 h [1] [ng/mL] | concentration at 8 h [1] [ng/mL] | concentration at 0.083 h [2, 4] [ng/mL] | concentration at 0.25 h [2, 5] [ng/mL] | concentration at 0.5 h [2, 6] [ng/mL] | concentration at 1 h [2, 7] [ng/mL] | concentration at 2 h [2, 8] [ng/mL] | concentration at 4 h [2, 9] [ng/mL] | concentration at 6 h [2, 10] [ng/mL] | concentration at 8 h [2, 11] [ng/mL] | concentration at 24 h [2, 12] [ng/mL] | half-life at 10 μM [3] [min] | CIint (μL min^−1 10^−6 cells) (hepatocytes) | further results
1 | C=C(CC(=O)O[C@H](C)CCCCCC)C(=O)OCC(=O)O [Example 112, (R)-2-((2-methylene-4-(octan-2-yloxy)-4-oxobutanoyl)oxy)acetic acid] | 63500 | 40100 | 36200 | 23500 | 13000 | 3540 | 1510 | 424 | 154 | 79800 | 64600 | 72300 | 49500 | 31400 | 21300 | 6780 | 12200 | 25 | 25 | 65 | concentration at 0.083 h ([2]; C57BL/6, po, mouse plasma, Example 112 dosed orally at 100 mg/kg (Intermediate 8 = metabolite), time 0.083 h, read-out: Example 112 and Intermediate 8 concentrations following oral administration): 109000 ng/mL; concentration at 0.25 h ([2]; C57BL/6, po, mouse plasma, Example 112 dosed orally at 100 mg/kg (Intermediate 8 = metabolite), time 0.25 h, read-out: Example 112 and Intermediate 8 concentrations following oral administration): 116000 ng/mL; concentration at 0.5 h ([2]; C57BL/6, po, mouse plasma, Example 112 dosed orally at 100 mg/kg (Intermediate 8 = metabolite), time 0.5 h, read-out: Example 112 and Intermediate 8 concentrations following oral administration): 74200 ng/mL; concentration at 1 h ([2]; C57BL/6, po, mouse plasma, Example 112 dosed orally at 100 mg/kg (Intermediate 8 = metabolite), time 1 h, read-out: Example 112 and Intermediate 8 concentrations following oral administration): 27900 ng/mL; concentration at 2 h ([2]; C57BL/6, po, mouse plasma, Example 112 dosed orally at 100 mg/kg (Intermediate 8 = metabolite), time 2 h, read-out: Example 112 and Intermediate 8 concentrations following oral administration): 14000 ng/mL; concentration at 4 h ([2]; C57BL/6, po, mouse plasma, Example 112 dosed orally at 100 mg/kg (Intermediate 8 = metabolite), time 4 h, read-out: Example 112 and Intermediate 8 concentrations following oral administration): 4880 ng/mL; concentration at 6 h ([2]; C57BL/6, po, mouse plasma, Example 112 dosed orally at 100 mg/kg (Intermediate 8 = metabolite), time 6 h, read-out: Example 112 and Intermediate 8 concentrations following oral administration): 4020 ng/mL; concentration at 8 h ([2]; C57BL/6, po, mouse plasma, Example 112 dosed orally at 100 mg/kg (Intermediate 8 = metabolite), time 8 h, read-out: Example 112 and Intermediate 8 concentrations following oral administration): 867 ng/mL; concentration at 24 h ([2]; C57BL/6, po, mouse plasma, Example 112 dosed orally at 100 mg/kg (Intermediate 8 = metabolite), time 24 h, read-out: Example 112 and Intermediate 8 concentrations following oral administration): < 8 ng/mL; Metabolism in vivo ([2]; mouse pharmacokinetic study, oral): undergoes hydrolysis in vivo to form Intermediate 8
2 | C=C(CC(=O)OC1C(C)(C)CC1(C)C)C(=O)OCC(=O)O [Example 169, 2-((2-methylene-4-oxo-4-(2,2,4,4-tetramethylcyclobutoxy)butanoyl)oxy) acetic acid] | 15600 | 6430 | 2800 | 516 | 8.6 | 2.5 | 1.3 | < 0.8 | < 0.8 | 37800 | 9880 | 4600 | 1750 | 971 | 215 | 57 | 7.7 | < 0.8 | 268 | 5 | 

Now from value to compound, other results behind:

Row | concentration at 0.05 h [1] [ng/mL] | concentration at 0.133 h [1] [ng/mL] | concentration at 0.25 h [1] [ng/mL] | concentration at 0.5 h [1] [ng/mL] | concentration at 1 h [1] [ng/mL] | concentration at 2 h [1] [ng/mL] | concentration at 4 h [1] [ng/mL] | concentration at 6 h [1] [ng/mL] | concentration at 8 h [1] [ng/mL] | concentration at 0.083 h [2, 4] [ng/mL] | concentration at 0.25 h [2, 5] [ng/mL] | concentration at 0.5 h [2, 6] [ng/mL] | concentration at 1 h [2, 7] [ng/mL] | concentration at 2 h [2, 8] [ng/mL] | concentration at 4 h [2, 9] [ng/mL] | concentration at 6 h [2, 10] [ng/mL] | concentration at 8 h [2, 11] [ng/mL] | concentration at 24 h [2, 12] [ng/mL] | half-life at 10 μM [3] [min] | CIint (μL min^−1 10^−6 cells) (hepatocytes) | Structure (SMILES) | further results
3 | 6690 | 1250 | 534 | 211 | 18 | < 4 | < 4 | < 4 | < 4 | 3790 | 2970 | 1860 | 968 | 585 | 381 | 135 | 181 | < 4 | 33 | 42 | C=C(CC(=O)O[C@@H](C)CCCCCC)C(=O)OCc1nn[nH]n1 [Example 164, (S)-1-(2H-tetrazol-5-yl)methyl 4-octan-2-yl 2-methylenesuccinate] | 
4 | 11900 | 3870 | 1070 | 346 | 38 | 3 | < 0.8 | < 0.8 | < 0.8 | 9360 | 4360 | 2650 | 1430 | 785 | 427 | 163 | 15 | < 0.8 | 198 | 9 | C=C(CC(=O)OC1CCCCC1)C(=O)OCc1nnn[nH]1 [Example 125, 1-((2H-tetrazol-5-yl)methyl) 4-cyclohexyl 2-methylenesuccinate] | 
5 | 31600 | 7760 | 2890 | 4300 | 74 | 12 | 11 | 1.4 | 1.7 | 17500 | 3500 | 7970 | 1980 | 856 | 636 | 94 | 62 | 7 | 53 | 27 | C=C(CC(=O)OC1CCCCCCC1)C(=O)OCc1nnn[nH]1 [Example 134, 1-((1H-tetrazol-5-yl)methyl) 4-cyclooctyl 2-methylenesuccinate] | 
